This is an account of results in paper PMC4854315, “Discovery of a novel allosteric inhibitor-binding site in ERK5: comparison with the canonical kinase hinge ATP-binding site” (Acta Crystallographica. Section D, Structural Biology, 2016).

What all share (test): Z'-LYTE kinase panel
What all share (format): biochemical

The target in one experiment is T1, PRKD1 (PKC mu) (Homo sapiens, UniProt Q15139).
T1 construct: purchased ThermoFisher (SelectScreen, Z'-LYTE)
T1 sequence (Q15139 1-912): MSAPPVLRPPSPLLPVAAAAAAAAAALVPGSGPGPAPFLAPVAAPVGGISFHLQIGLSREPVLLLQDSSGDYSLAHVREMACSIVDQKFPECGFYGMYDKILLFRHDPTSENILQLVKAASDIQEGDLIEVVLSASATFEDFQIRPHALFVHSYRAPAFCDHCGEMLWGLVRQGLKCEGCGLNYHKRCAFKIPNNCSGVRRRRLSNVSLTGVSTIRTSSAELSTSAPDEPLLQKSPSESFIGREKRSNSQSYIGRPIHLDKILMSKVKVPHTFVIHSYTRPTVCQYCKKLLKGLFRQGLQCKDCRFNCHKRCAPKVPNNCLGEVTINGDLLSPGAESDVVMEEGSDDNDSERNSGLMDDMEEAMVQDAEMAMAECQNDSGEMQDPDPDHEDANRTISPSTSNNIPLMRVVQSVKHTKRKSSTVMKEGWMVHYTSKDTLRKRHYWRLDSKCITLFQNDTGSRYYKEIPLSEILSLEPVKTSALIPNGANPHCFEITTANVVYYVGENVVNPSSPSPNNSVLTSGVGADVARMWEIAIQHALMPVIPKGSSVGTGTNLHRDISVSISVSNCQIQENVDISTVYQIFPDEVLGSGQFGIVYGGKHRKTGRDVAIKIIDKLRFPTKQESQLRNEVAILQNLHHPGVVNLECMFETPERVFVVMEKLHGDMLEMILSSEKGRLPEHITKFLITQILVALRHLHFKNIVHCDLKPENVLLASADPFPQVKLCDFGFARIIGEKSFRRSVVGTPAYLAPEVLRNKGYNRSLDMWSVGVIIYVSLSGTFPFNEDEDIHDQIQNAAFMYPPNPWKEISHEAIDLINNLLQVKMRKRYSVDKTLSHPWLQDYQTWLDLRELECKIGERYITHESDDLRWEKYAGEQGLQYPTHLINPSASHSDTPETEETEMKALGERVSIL
An outline of the steps:
(§1)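 A panel of 225 kinases is tested by Z′-LYTE under the standard protocol, with compounds at 10 µM and results given as percentage inhibition.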

A further experiment concerns the target T2, MERTK (cMER) (Homo sapiens, UniProt Q12866).
T2 construct: purchased ThermoFisher (SelectScreen, Z'-LYTE)
T2 sequence (Q12866 21-999): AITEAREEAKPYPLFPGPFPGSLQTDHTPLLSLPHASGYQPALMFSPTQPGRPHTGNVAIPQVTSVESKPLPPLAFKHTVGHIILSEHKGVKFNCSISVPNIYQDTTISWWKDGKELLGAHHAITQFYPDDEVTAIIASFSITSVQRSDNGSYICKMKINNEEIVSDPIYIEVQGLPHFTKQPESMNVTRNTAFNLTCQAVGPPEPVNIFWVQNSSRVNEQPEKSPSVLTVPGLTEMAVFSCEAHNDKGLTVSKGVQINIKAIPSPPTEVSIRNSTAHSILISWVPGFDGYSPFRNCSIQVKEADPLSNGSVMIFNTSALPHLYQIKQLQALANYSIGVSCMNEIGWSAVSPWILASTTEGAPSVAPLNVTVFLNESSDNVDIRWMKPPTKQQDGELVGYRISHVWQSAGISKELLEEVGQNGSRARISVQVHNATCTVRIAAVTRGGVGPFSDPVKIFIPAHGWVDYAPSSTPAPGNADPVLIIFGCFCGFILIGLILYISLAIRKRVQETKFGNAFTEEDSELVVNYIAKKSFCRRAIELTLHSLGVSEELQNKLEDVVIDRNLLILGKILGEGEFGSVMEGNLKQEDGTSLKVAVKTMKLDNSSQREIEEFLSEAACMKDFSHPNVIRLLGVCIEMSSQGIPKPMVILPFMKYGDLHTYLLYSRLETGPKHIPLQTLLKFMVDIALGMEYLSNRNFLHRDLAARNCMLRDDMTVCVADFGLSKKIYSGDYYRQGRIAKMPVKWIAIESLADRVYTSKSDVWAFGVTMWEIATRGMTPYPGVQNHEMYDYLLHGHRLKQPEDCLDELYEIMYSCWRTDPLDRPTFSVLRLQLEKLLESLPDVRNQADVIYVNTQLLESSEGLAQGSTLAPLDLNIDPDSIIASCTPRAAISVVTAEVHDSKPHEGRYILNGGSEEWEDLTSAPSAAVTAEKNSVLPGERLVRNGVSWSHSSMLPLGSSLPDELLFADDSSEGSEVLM
An outline of the steps: as §1

A further experiment concerns the target T3, MAP3K8 (COT) (Homo sapiens, UniProt P41279).
T3 construct: purchased ThermoFisher (SelectScreen, Z'-LYTE)
The conditions noted are these: 10 µM compound; ATP 100. An outline of the steps: as §1

A further experiment deals with T4, PKN1 (PRK1) (Homo sapiens, UniProt Q16512).
T4 construct: purchased ThermoFisher (SelectScreen, Z'-LYTE)
An outline of the steps: as §1

Another experiment concerns the target T5, ERBB4 (HER4) (Homo sapiens, UniProt Q15303).
T5 construct: purchased ThermoFisher (SelectScreen, Z'-LYTE)
Summed up:
as §1

For another experiment, the target named is T6, AURKC (Aurora C) (Homo sapiens, UniProt Q9UQB9).
T6 construct: purchased ThermoFisher (SelectScreen, Z'-LYTE)
T6 sequence (Q9UQB9 1-309): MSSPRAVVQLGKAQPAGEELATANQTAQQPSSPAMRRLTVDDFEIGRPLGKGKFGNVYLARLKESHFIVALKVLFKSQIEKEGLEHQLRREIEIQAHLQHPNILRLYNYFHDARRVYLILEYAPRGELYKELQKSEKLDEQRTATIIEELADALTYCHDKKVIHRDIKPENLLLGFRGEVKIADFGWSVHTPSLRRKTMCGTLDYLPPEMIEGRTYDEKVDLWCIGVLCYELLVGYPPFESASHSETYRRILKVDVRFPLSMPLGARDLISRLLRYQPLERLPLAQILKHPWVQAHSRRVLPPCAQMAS
Summed up: as §1

The target in the next experiment is T7, FGFR2 (Homo sapiens, UniProt P21802).
T7 construct: purchased ThermoFisher (SelectScreen, Z'-LYTE)
An outline of the steps: as §1

A further experiment addresses T8, DYRK1A (Homo sapiens, UniProt Q13627).
T8 construct: purchased ThermoFisher (SelectScreen, Z'-LYTE)
An outline of the steps: as §1

T3 sequence (P41279 whole entry): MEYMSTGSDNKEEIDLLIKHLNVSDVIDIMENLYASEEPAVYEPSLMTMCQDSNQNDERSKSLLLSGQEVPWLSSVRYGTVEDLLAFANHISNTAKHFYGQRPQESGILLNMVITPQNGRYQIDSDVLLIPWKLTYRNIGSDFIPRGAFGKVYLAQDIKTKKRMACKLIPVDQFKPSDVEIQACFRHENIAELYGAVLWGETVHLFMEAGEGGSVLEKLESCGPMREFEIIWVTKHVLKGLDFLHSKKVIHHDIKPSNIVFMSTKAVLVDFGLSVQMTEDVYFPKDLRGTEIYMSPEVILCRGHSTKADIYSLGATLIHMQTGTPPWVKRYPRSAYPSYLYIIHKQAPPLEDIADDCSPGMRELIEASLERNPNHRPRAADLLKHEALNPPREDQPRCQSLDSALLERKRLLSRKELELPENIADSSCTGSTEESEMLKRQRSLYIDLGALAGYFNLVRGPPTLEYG
T7 sequence (P21802 22-821): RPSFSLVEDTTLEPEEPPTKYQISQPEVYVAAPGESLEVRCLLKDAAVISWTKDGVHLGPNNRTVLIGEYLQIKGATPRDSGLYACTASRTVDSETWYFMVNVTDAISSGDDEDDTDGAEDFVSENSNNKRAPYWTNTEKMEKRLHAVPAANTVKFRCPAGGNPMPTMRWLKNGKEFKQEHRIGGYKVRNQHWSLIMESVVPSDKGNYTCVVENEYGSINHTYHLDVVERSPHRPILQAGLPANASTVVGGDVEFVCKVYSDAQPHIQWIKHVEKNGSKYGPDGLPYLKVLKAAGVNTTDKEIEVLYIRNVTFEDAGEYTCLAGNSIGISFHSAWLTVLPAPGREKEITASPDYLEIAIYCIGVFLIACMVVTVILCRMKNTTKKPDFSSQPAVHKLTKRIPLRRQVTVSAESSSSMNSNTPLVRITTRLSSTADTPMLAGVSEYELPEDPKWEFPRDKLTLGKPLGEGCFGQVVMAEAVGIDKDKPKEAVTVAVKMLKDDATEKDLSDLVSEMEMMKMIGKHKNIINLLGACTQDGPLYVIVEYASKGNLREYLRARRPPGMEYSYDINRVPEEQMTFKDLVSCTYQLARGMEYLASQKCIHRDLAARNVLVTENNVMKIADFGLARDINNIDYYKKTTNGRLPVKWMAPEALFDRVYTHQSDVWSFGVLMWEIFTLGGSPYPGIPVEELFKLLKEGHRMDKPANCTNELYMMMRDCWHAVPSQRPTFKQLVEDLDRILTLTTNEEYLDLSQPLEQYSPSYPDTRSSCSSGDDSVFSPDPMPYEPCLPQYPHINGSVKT
T5 sequence (Q15303 26-1308): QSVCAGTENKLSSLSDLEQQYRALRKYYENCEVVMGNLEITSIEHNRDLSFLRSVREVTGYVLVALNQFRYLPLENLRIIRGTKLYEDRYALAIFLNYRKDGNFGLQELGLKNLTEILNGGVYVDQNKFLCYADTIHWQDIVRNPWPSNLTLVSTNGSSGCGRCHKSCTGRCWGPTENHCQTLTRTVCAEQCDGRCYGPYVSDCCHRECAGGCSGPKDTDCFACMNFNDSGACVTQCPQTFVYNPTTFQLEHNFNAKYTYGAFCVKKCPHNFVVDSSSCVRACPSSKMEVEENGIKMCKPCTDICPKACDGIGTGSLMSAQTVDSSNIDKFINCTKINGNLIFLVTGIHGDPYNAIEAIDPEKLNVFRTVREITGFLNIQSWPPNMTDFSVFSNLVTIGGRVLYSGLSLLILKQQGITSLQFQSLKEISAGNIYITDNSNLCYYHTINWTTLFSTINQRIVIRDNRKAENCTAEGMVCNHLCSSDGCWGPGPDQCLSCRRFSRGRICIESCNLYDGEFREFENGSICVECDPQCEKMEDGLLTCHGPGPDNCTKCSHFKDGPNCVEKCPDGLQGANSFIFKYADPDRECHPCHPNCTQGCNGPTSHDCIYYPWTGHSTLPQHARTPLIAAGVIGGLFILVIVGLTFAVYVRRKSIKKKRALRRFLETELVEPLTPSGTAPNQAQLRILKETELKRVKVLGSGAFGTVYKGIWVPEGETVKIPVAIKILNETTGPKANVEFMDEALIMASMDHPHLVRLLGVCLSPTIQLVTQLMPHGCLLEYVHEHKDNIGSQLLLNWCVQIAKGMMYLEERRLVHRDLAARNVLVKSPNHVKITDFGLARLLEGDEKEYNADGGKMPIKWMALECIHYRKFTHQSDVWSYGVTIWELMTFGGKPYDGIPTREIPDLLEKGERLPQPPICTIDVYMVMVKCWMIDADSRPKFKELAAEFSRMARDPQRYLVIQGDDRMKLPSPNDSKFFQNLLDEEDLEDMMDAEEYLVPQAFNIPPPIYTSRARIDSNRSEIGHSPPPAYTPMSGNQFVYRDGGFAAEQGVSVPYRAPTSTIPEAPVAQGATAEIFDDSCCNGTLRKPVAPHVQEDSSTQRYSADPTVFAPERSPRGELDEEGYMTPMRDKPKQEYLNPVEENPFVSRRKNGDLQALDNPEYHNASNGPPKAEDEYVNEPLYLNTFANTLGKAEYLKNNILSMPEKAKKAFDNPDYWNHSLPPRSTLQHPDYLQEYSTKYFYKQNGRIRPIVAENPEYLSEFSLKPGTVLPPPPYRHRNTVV
T4 sequence (Q16512 whole entry): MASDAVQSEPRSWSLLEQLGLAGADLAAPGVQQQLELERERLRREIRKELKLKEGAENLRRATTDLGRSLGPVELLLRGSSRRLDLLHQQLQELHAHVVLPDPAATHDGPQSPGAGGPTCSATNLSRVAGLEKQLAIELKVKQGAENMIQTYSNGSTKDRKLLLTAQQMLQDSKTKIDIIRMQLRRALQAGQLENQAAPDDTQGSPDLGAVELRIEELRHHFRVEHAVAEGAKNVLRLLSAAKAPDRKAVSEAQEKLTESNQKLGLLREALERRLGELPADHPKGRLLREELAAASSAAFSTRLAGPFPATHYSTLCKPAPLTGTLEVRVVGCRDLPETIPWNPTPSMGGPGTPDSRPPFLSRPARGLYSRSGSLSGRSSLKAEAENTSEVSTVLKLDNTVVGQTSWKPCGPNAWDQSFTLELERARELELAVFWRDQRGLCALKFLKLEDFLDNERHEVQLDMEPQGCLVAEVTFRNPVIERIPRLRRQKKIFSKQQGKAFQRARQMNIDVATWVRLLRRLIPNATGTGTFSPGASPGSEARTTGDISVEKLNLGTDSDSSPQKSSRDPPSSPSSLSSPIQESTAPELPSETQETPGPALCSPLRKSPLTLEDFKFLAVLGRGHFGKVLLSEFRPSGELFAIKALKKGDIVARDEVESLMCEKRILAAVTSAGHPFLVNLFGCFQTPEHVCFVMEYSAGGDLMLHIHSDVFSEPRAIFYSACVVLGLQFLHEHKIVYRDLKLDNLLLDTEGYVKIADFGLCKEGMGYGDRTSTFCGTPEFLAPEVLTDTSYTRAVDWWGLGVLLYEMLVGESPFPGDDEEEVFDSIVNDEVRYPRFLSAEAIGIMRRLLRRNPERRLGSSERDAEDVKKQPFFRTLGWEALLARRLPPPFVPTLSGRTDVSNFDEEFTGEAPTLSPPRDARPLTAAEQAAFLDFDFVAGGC

In the case of “XMD8-92 [Compound 2, reference compound]”, on PRKD1 (PKC mu) (10 µM compound, ATP Km app), the “PRKD1 (PKC mu) % Inhibition” value is on record as 17%. In addition, the “MERTK (cMER) % Inhibition” value on MERTK (cMER) (10 µM compound, ATP Km app) is 0.252%. Also, on MAP3K8 (COT), the “MAP3K8 (COT) % Inhibition” value amounted to 3.36%. The “PKN1 (PRK1) % Inhibition” value at PKN1 (PRK1) (10 µM compound, ATP Km app) was 1.26%. In addition, the “ERBB4 (HER4) % Inhibition” value at ERBB4 (HER4) (10 µM compound, ATP Km app) was 16%. The “AURKC (Aurora C) % Inhibition” value at AURKC (Aurora C) (10 µM compound, ATP Km app) was determined as 34%. For the same compound, the “FGFR2 % Inhibition” value on FGFR2 (10 µM compound, ATP Km app) is 33%. Moreover, the “DYRK1A % Inhibition” value on DYRK1A (10 µM compound, ATP Km app) stood at 2%.

Turning to `Cc1cc(Nc2nc(N)nn2C(=O)NC(C)C)ccc1Cl` [Compound 5], the inhibition (as a rule, the drop in the measured response relative to a control, in per cent) at 10 µM against PRKD1 (PKC mu) is 15%; against MERTK (cMER) it was 43%; against MAP3K8 (COT), -2.72%; against PKN1 (PRK1), -3.54%; against ERBB4 (HER4) it was 7%; against AURKC (Aurora C), 54%. Moreover, the inhibition at 10 µM against FGFR2 was found to be 53%; at DYRK1A, 1.48%.

In the case of `Cc1ncc(-c2nc(Nc3ccc(C(=O)NCCN4CCCCC4)cc3)ncc2F)n1C(C)C` [Compound 3], the inhibition at 10 µM was 93% against PRKD1 (PKC mu); 99% at MERTK (cMER); 89% at MAP3K8 (COT); 62% at PKN1 (PRK1); 17% against ERBB4 (HER4); 89% on AURKC (Aurora C). Also, the inhibition at 10 µM against FGFR2 came out at 88%; on DYRK1A, 93%.
